A short description of series [1]: Liver microsomal stability (HLM). In kind it is in vitro ADME. Particulars: human, liver microsomes, human liver microsomes 0.5 mg/mL, 1 μM compound, NADPH. The protocol:
Liver Microsomal Stability
Certain Compounds of the Disclosure were assessed for ADME metabolic stability in human liver microsomes (HLM).
Samples were prepared by adding 222.5 μL of a master solution (100 mM phosphate buffer and 0.5 mg/mL liver microsomes (HLM)) and 25 μL of a 10 mM NADPH solution to incubation plates, which were then warmed for 10 min. Each compound was separately dissolved in DMSO to prepare 10 mM stock solutions, which were then diluted to 100 μM with acetonitrile. A reaction was started by adding 2.5 μL of the […] solution of each compound to separate incubation plates such that the final concentration of for each compound in each plate was 1 μM. Aliquots of 30 μL were taken from the reaction solution at 0.5, 5, 15, 30 and 60 minutes. The reaction was stopped by the addition of 5 volumes of cold acetonitrile with IS (100 nM alprazolam, 200 nM caffeine and 100 nM tolbutamide). Aliquot of 100 μL of the supernatant was diluted by 100 μL ultra-pure water, and the mixture was used for LC/MS/MS analysis. Peak areas were determined from extracted ion chromatograms. […]. The percentage of remaining parent was calculated from peak area of test compound or PC. The slope value, k, is determined by linear regression of the natural logarithm of percent parent remaining vs. incubation time curve. All calculations are carried out using Microsoft Excel.
The in vitro half-life (in vitro t1/2) is determined from the slope value:
Conversion of the in vitro t1/2 (in min) into the in vitro intrinsic clearance (in vitro CLint, (HLM Clint (μL/min/mg proteins))) is done using the following equation: […]
A: HLM Clint <10 μL/min/mg; B: 10 μL/min/mg≤HLM Clint <50 μL/min/mg; C: HLM Clint ≥50 μL/min/mg.
(In general: Microsomes from liver hold many membrane-bound enzymes, among them those of drug oxidation.)

A short description of series [2]: Solubility in FaSSIF (Fasted State Simulated Intestinal Fluid). Type of series: physicochemical. Particulars: kinetic from dmso stock, FaSSIF pH 6.5, 25° C. The protocol: Solubility in FaSSIF (Fasted State Simulated Intestinal Fluid)
Certain Compounds of the Disclosure were assessed for the apparent solubility in FaSSIF.
0.420 g of NaOH, 3.438 g of NaH2PO4 and 6.186 g of NaCl were dissolved into about 900 mL ultrapure water. The solution was adjusted to the pH of 6.5 with 1N NaOH or 1N HCl. The solution was then diluted with ultrapure water to 1000 mL at room temperature. The resulting solution is used as buffer solution.
2.240 g of FaSSIF Powder was added to about 500 mL of above-mentioned buffer solution. The solution was stirred until powder was completely dissolved. Then the solution was diluted with buffer A to 1000 mL at room temperature. This solution is FaSSIF to be used in the following experiment.
15 μL of stock solution (10 mM) of each sample was placed into their proper 96-well rack. 485 μL of FaSSIF was added into each vial of the cap-less solubility sample plate. One stir stick was added to each vial and the vial was sealed using a molded PTFE/Silicone plug. The solubility sample plate was transferred to the Eppendorf Thermomixer Comfort plate shaker and shaked at 25° C. at 1100 RPM for 2 hours. After completion of the 2 hours, the stir sticks using a big magnet were removed. The samples from the solubility sample plate were transferred into the filter plate. Using the vacuum manifold, all the samples are filtered. Aliquot of 5 μL was taken from filtrate followed by addition of 5 μL DMSO and 490 μL of a mixture of H2O and acetonitrile containing internal standard (1:1).
3 μM Standards solution (STD) was prepared from the 10 mM DMSO STD plate.as following: transferring 6 μL into the remaining empty plate, adding 194 μL of DMSO to that plate to have a STD concentration of 300 μM. From the 300 μM DMSO STD plate, 5 μL solution was transferred into the remaining empty plate. Addition of 5 μL PBS and 490 μL of a mixture of H2O and acetonitrile containing internal standard (1:1) to that plate furnished a final STD concentration of 3 μM STD solution.
The samples are analyzed and quantified against the standard of known concentration using LC/MS/MS, calculating the solubility of the test compound as following (DF means the dilution factor):
[Sample solubility in FsSSIF (04)]=Area Ratio sample×DF sample×[STD]/Area Ratio STD

Series [3] concerns MDA-MB-436 cells. Briefly: CTG Protocol (MDA-MB-436 GI50), antiproliferative activity. Type of series: cell-based, human. Particulars: Homo sapiens, 168 h; MDA-MB-436 cells (BRCA1 mutation), 7-day incubation, CellTiter-Glo. The protocol: CTG Protocol (MDA-MB-436 GI50)
Antiproliferative activity of USP1 inhibitors was determined using breast cancer cell line MDA-MB-436 that harbors BRCA1 mutation. MDA-MB-436 cells (ATCC, HTB-130) was seeded with a seeding density of 1000 cells per well and 95 μL DMEM medium (Gibco, 10566016) into 96-well cell plates (Corning, 3610), and incubated overnight at 37° C. and 5% CO2. Compounds were solubilized in DMSO (Solarbio, D8371) as 10 mM stock solution, and then series diluted (3 folds) with DMSO for 9-point dose-response testing. The resulted series dilutions were then jump-diluted 50-fold by cell culture medium to afford the 20×stock solutions (containing 2% DMSO). Treatment was initiated by adding 5 μL of 20×stock solution to the assay plate and incubated at 37° C. and 5% CO2. At the end of 7-day incubation, cell assay plates were removed from incubation and equilibrated to room temperature (20 min). Then 100 μL of CellTiter-Glo (Promega, G9243) reagent, prepared per manufacturer's protocol, was added to each well, and the resulted plates were centrifuged 1,000 rpm for 1 minute, incubated at room temperature in the dark for 20 minutes, sealed with Perkin Elmer sticky film, and the luminescence signal read by Envision (Perkin Elmer).
Data analysis • a) % Inhibition was calculated using following equation: […]
X: compound concentration; Y: % Inhibition
(§1) Certain compounds were tested in the assays.
For orientation: Cellular ATP, detected with luciferase, serves as a proxy for viable cell number.

Series [4] concerns HCC1806 Ub-PCNA (USP1). Briefly: USP1 Western Blot Protocol (HCC1806 Ub-PCNA). Particulars: Homo sapiens, HCC1806 cells, 4 hours. In kind it is cell-based.
Excerpt: USP1 Western Blot Protocol (HCC1806 Ub-PCNA)
USP1 is a deubiquitinase that catalyze the hydrolysis of iso-peptide bond between ubiquitin and the substrate proteins. Inhibition of USP1 activity results in accumulation of mono-ubiquitinated substrate such as Ub-PCNA. A cell assay was set up to determine the cellular potency of USP1 compounds by monitoring the accumulation of Ub-PCNA. The signal intensity was detected by a specific Ub-PCNA antibody through Western-blot analysis.
The assay was initiated by seeding HCC1806 cells (ATCC, CRL-2335) into 6-well plates (Corning, 3516), with a seeding density of 3×10^5 cells per well and 2 mL RPMI 1640 culture medium (Gibco, 11875119). The plates were incubated overnight at 37° C. and 5% CO2. Compounds, solubilized in DMSO (Solarbio, D8371) as 1 mM stock solution, were diluted in 4-fold steps for 5-cencentration point dose response plus a no-compound DMSO control. Diluted compounds (2 μL) were transferred into assay wells (with a final DMSO concentration of −0.1%) and the resulted assay plates incubated at 37° C. and 5% CO2 for 4 hours. After aspiration of culture medium, 100 μL of 4° C. RIPA lysis buffer (Boston BioProducts, BP-115D) supplemented with vendor recommended concentrations of protease (Roche, 4693116001) and phosphatase (Roche, 4906837001) inhibitor, was added to each well and incubated for 10 minutes on the ice. Cells were scrapped loose from the bottom of well with a scraper (Corning, 3008), transferred into a 600 μL EP tube, sonicated using Ultrasound (Qsonica, Q800R3, with 30% energy, 5-second pulse on/off cycles at 4° C., for total 2 minutes), centrifuged 13,000 rpm for 15 minutes at 4° C., and then the supernatant transferred to a new 600 μL EP tube. The total protein concentration was determined using BCA kit following vendor recommended protocol (Solarbio, PC0020-500). Loading samples were prepared by diluting the total protein concentration to 1.5 μg/μL with 5 X NuPAGE SDS loading buffer (Beyotime, P0015L) and RIPA lysis buffer, and boiling at 100° C. for 5 minutes.
15 μg protein from each sample was loaded onto NuPAGE® Novex 4-12% Bis-Tris Midi Gel, 26 W (Invitrogen, WG1403BOX) and electrophoresis was run at 80 V for 30 minutes and 120 V till the end using 1x NuPAGE® MOPS SDS Running Buffer (Novex, NP0001). The gel was then transferred to nitrocellulose membrane using the dry transfer system (iBlot 2 Transfer Stacks, nitrocellulose, D323001) with a program consisting of 20 V for 1 minute, 23 V for 4 minutes and 25 V for 2 minutes. After the membrane was blocked with 5% BSA (Solarbio, A8020) in 1X TBST (CST, 9997S) for 1 hour at room temperature, specific antibodies (Ubiquityl-PCNA antibody (CST, 13439) at 1:500 dilution, PCNA antibody (Santa Cruz, sc-56) at 1:1000 dilution, and GAPDH (CST, 5174) at 1:2000 dilution in 1 X TBST containing 1% BSA) were added and incubated at room temperature for 1.5 hours. After washing the Nitrocellulose membranes with 1 X TBST for 3 times, 10 minutes each time at room temperature, fluorescently labeled secondary antibodies (anti-rabbit IgG, Licor, 926-32211; anti-mouse IgG, LI-COR, 926-68070) at 1:5000 dilution in 1 X TBST containing 1% BSA were added and incubated for 1 hour at room temperature in the dark. The membranes were then rinsed with 1 X TBST and immersed in the RO water. Imaging of band intensity was acquired with Li—COR imaging system (Li—COR, Odyssey clx ES).
Percentage of USP1 inhibition (% Vehicle) was calculated by using following equation examining Ub-PCNA upregulation:
And IC50 was calculated using four-parameter logistic fitting program • Y=Bottom+(Top-Bottom)/(1+10 {circumflex over (()}(LogIC50−X)*Hill Slope)) • X=Log of dose or concentration
as §1

pIC50: −log10 of the molar value.

The source of these data is patent US20240092779A1, “USP1 INHIBITORS AND USES THEREOF” (Zentaur Therapeutics USA Inc., priority 2022, published 2024).

Regarding `COc1ncnc(C2CC2)c1-c1ncc2ccc(=O)n(Cc3ccc(-c4nc(C(F)(F)F)cn4C)cc3)c2n1` [Compound I-1, 2-(4-Cyclopropyl-6-Methoxypyrimidin-5-Yl)-8-({4-[1-Methyl-4-(Trifluoromethyl)Imidazol-2-Yl]Phenyl}Methyl)Pyrido[2,3-d]Pyrimidin-7-One], the microsomal CLint (usually a measure of how fast metabolising enzymes remove a compound, apart from limits set by blood flow) at 1 μM in series [1] was in the range of 10 to 50 µL/min/mg.
`COc1ncnc(C2CC2)c1-c1ncc2ccc(=O)n(Cc3ccc(-c4nc(C(F)(F)F)cn4C(C)C)cc3)c2n1` [Compound I-4, 2-(4-Cyclopropyl-6-Methoxypyrimidin-5-Yl)-8-({4-[1-Isopropyl-4-(Trifluoromethyl)Imidazol-2-Yl]Phenyl}Methyl)Pyrido[2,3-d]Pyrimidin-7-One] came in with a microsomal CLint at 1 μM in series [1] below 10 µL/min/mg. Also, the solubility – broadly, how much of the substance goes into solution per volume – at 2 h in series [2] is below 10 µM.
The matching figures for `COc1ncnc(C2CC2)c1-c1ncc2ccc(=O)n(Cc3ccc(-n4nc(C(F)(F)F)cc4C)cc3)c2n1` [Compound I-8, 2-(4-cyclopropyl-6-methoxypyrimidin-5-yl)-8-({4-[5-methyl-3-(trifluoromethyl)pyrazol-1-yl]phenyl}methyl)pyrido[2,3-d]pyrimidin-7-one]: 10 to 50 µL/min/mg and at least 100 µM.
In turn, `COc1ncnc(C2CC2)c1-c1cc2c(ccc(=O)n2Cc2ccc(-c3nc(C(F)(F)F)cn3C)cc2)cn1` [Compound I-11, 7-(4-Cyclopropyl-6-Methoxypyrimidin-5-Yl)-1-({4-[1-Methyl-4-(Trifluoromethyl)Imidazol-2-Yl]Phenyl}Methyl)-1,6-Naphthyridin-2-One] gave an intrinsic metabolic clearance (microsomal CLint) at 1 μM in series [1] of 10 to 50 µL/min/mg.
Same read-out and setting: in the case of `COc1ncnc(C2CC2)c1-c1ncc2ncc(=O)n(Cc3ccc(-c4nc(C(F)(F)F)cn4C)cc3)c2n1` [Compound I-17, 2-(4-cyclopropyl-6-methoxypyrimidin-5-yl)-8-({4-[1-methyl-4-(trifluoromethyl)imidazol-2-yl]phenyl}methyl) pteridin-7-one] it was 10 to 50 µL/min/mg.
Turning to `[2H]C([2H])([2H])n1cc(C(F)(F)F)nc1-c1ccc(Cn2c(=O)ccc3cnc(-c4c(OC)ncnc4C4CC4)nc32)cc1` [Compound I-31, 2-(4-Cyclopropyl-6-Methoxypyrimidin-5-Yl)-8-({4-[1-(2H3)Methyl-4-(Trifluoromethyl)Imidazol-2-Yl]Phenyl}Methyl)Pyrido[2,3-d]Pyrimidin-7-One], the 50% growth inhibitory concentration (GI50) (commonly the concentration giving 50% growth inhibition) in series [3] is below 10 nM. Moreover, the pIC50 (in general, the IC50 on a negative log10 scale, so that one unit is a factor of ten) in series [4] is 7.00 to 8.00. In series [1], this molecule yielded a microsomal CLint at 1 μM of 10 to 50 µL/min/mg.
In series [3], `[2H]C([2H])([2H])n1cc(C(F)(F)F)nc1-c1ccc(C([2H])([2H])n2c(=O)ccc3cnc(-c4c(OC)ncnc4C4CC4)nc32)cc1` [Compound I-37, 2-(4-Cyclopropyl-6-Methoxypyrimidin-5-Yl)-8-({4-[1-(2H3)Methyl-4-(Trifluoromethyl)Imidazol-2-Yl]Phenyl}(2H2)Methyl)Pyrido[2,3-d]Pyrimidin-7-One] registered a GI50 of 10 to 100 nM. In series [4], this molecule gave a pIC50 of 7.00 to 8.00. The molecule also had an intrinsic metabolic clearance (microsomal CLint) at 1 μM in series [1] of 10 to 50 µL/min/mg.
For `[2H]C([2H])([2H])Oc1ncnc(C2CC2)c1-c1ncc2ccc(=O)n(C([2H])([2H])c3ccc(-c4nc(C(F)(F)F)cn4C([2H])([2H])[2H])cc3)c2n1` [Compound I-57], in series [1], the microsomal CLint at 1 μM lay within 10 to 50 µL/min/mg.
For the molecule `COc1ncnc(C2CC2)c1-c1ncc2ccc(=O)n(Cc3ccc(-c4nc(C(F)(F)F)cn4C4COC4)cc3)c2n1` [Compound I-59], the intrinsic metabolic clearance (microsomal CLint) at 1 μM in series [1] is 10 to 50 µL/min/mg.
